{"source": "patent US20230109717A1", "about": "(GAIA BioMedicine Inc., priority 2020, published 2023)", "key": {"K562 cells": {"tested_on": "K562 cells", "assay": "Cytotoxic activity rate (% Lysis) of freeze-thawed highly active NK cells against K562 cells", "format": "cell-based", "conditions": "for Activity: Exmp. 7, collect. method 2", "protocol": "Cytotoxic activity can be expressed as the percentage of target cells killed by effector cells, and is calculated in accordance with the following equation.\n(Cell death observed in co-culture with effector cells−Spontaneous cell death (negative control))/(Maximum cell death (positive control)−Spontaneous cell death (negative control))×100\nFor the measurement of cytotoxic activity, a group of the K562 cells reacted with the NK cells, a group consisting solely of the K562 cells as a negative control, and a group of the K562 cells fixed with 10% formalin as a positive control were prepared.\nAfter incubation for the times indicated for the groups, the cells were collected, and prepared at a density of 2×10^6 cells/mL in 10% FBS/RPMI 1640.\nThe K562 cells (human chronic myelogenous leukemia cell line) were suspended in serum-free RPMI 1640 medium, stained with PKH26 Red Fluorescent Cell Linker Kit (Sigma, PKH26GL-1KT), and finally prepared at a density of 2×10^6 cells/mL in 10% FBS/RPMI 1640.\nThe NK cells and K562 cells were added and mixed in wells of 96-well plate (IWAKI, 4870-800SP) at a cell ratio of 1:1, and allowed to react at 37° C. for 2 hours under 5% CO2. After the reaction, the plate was centrifuged (500×g, 5 minutes), and the supernatant was removed. Then, a 7-AAD solution diluted with PBS was added to the cells to suspend the cells, and the suspension was incubated at room temperature for 20 minutes. […]\nFor the measurement of cytotoxic activity, a group of the NK cells reacted with the K562 cells, a group solely consisting of the K562 cells as a negative control, and a group of the K562 cells fixed with 10% formalin as a positive control were prepared.\nThe cells were thawed and diluted by the method described above, and a necessary amount of the cells were taken on the basis of the number of viable cells at the time of freezing, and then prepared at a density of 2×10^6 cells/mL in 10% FBS/RPMI 1640.\nThe K562 cells were suspended in serum-free RPMI 1640 medium, stained with PKH26 Red Fluorescent Cell Linker Kit, and then prepared at a density of 2×10^6 cells/mL in 10% FBS/RPMI 1640. […]\nFor the measurement of cytotoxic activity, a group of NK cells reacted with K562 cells, a group of K562 cells only as a negative control, and a group of K562 cells fixed with 10% formalin as a positive control were prepared. […]\n(9-2) Cytotoxic activity was measured in the same manner as described in the section of (9-1), but after thawing and dilution, the cells were left to stand for up to 6 hours, and cytotoxic activity was measured by the method described in the section b) mentioned above at the time points of 2, 5, and 6 hours. In detail, the NK cells and K562 cells were added to each well of a 96-well plate (IWAKI, 4870-800SP) at a cell ratio of 1:1, mixed, and then allowed to react at 37° C. for 2 hours under 5% CO2."}, "highly active NK cells": {"tested_on": "highly active NK cells", "assay": "Viable cell count and recovery rate of highly active NK cells after thawing, based on cell number at freezing", "set-up": "species or system human", "protocol": "After the thawing, all the dilution and incubation operations were performed on a low-absorption 6-well plate.\nThe cells of the groups diluted in the media were incubated overnight at 37° C. under 5% CO2, and then the numbers of viable cells were counted. The experimental conditions are summarized below.\nThe NK cells obtained by the collection method 1 were suspended in PBS, and incubated at room temperature for 1 hour. The NK cells obtained by the collection method 2 were suspended in (1) the KBM501 medium, (2) KBM501 medium containing 30 μM 4-phenylbutyric acid, (3) KBM501 medium containing 30 μM tauroursodeoxycholic acid dihydrate (TUDCA, Tokyo Kasei Kogyo, T1567), and (4) KBM501 medium containing 30 μM 4-phenylbutyric acid and 30 μM TUDCA, and incubated at 37° C. for 2 hours under 5% CO2. […] After 1 hour, the cells were gently suspended, and number of viable cells was counted. After another 5-fold dilution in the KBM501 medium and incubation at 37° C. for 2 hours under 5% CO2, number of viable cells was counted, and the recovery rate based on the number of cells at the time of freezing was calculated.\n(§1) After 1 and 3 hours, the cells were gently suspended, and viable cells were counted. In addition, after 1 hour, the cells were diluted 5-fold in the KBM501 medium, and incubated at 37° C. for 2 hours under 5% CO2, and viable cell were counted. Recovery rate of viable cells after the thawing based on the cell number at the time of freezing was calculated using the number of viable cells at each time point.\nas §1, with “on the basis of” for “using”, “point after the thawing.” for “point.”"}, "SKOV3 sphere": {"tested_on": "SKOV3 sphere", "assay": "Evaluation of thawed highly active NK cells in a solid tumor model (3D killing assay)", "format": "cell-based, human", "conditions": "added before freezing at 800 μM (preferable between 2,400 μM and 267 μM)", "protocol": "To one of SKOV3 sphere inoculated beforehand in each well of a […] plate, 50 μL of the prepared NK cells were added, and allowed to react for 4 days at 37° C. under 5% CO2. Then, the cells were detached with Accutase, collected, and cultured in the RPMI medium on a 24-well plate for expansion. After 17 days of the expansion culture at 37° C. under 5% CO2, the cells were fixed with 4% PFA, stained with DAPI, and observed under a fluorescence microscope (BZ-9000, KEYENCE), and BZ-II Analysis Application was used to quantify the area of SKOV3 that was not injured by the NK cells.\nThe SKOV3 cells (human ovarian cancer cell line) were prepared at a density of 3×10^4 cells/mL in 10% FBS/RPMI 1640, and inoculated onto a 96-well plate in an amount of 3×10^3 cells/100 μL per well. Spheres were prepared by incubating the cells at 37° C. for 3 days under 5% CO2."}}, "note": "“Also recorded” adds a separate entry of the source."}
{"smiles": "C[C@H](CCC(=O)NCCS(=O)(=O)O)[C@H]1CC[C@H]2[C@@H]3[C@@H](O)C[C@@H]4C[C@H](O)CC[C@]4(C)[C@H]3CC[C@]12C", "note": "[TUDCA, tauroursodeoxycholic acid dihydrate]", "values": [{"measurement": "Activity", "setting": "K562 cells; pretreatment KBM + 266 μM TUDCA 2 h, thawing PlasmaLyte + IL-2, R.T. 1 h", "result": "A (A means 70% or higher)"}, {"measurement": "Activity", "setting": "K562 cells; pretreatment KBM + 266 μM TUDCA 2 h, thawing PlasmaLyte + IL-2, R.T. 1 h, then KBM 2 h", "result": "A (A means 70% or higher)"}, {"measurement": "Activity", "setting": "K562 cells; pretreatment KBM + 266 μM TUDCA 2 h, thawing PlasmaLyte + IL-2, R.T. 3 h", "result": "A (A means 70% or higher)"}, {"measurement": "Activity", "setting": "K562 cells; pretreatment KBM + 266 μM TUDCA 2 h, thawing PlasmaLyte R.T. 1 h", "result": "A (A means 70% or higher)"}, {"measurement": "Activity", "setting": "K562 cells; pretreatment KBM + 266 μM TUDCA 2 h, thawing PlasmaLyte R.T. 1 h, then KBM 2 h", "result": "A (A means 70% or higher)"}, {"measurement": "Activity", "setting": "K562 cells; pretreatment KBM + 266 μM TUDCA 2 h, thawing PlasmaLyte R.T. 3 h", "result": "A (A means 70% or higher)"}, {"measurement": "Activity", "setting": "K562 cells; pretreatment KBM + 800 μM TUDCA 2 h, thawing PlasmaLyte + IL-2, R.T. 1 h", "result": "A (A means 70% or higher)"}, {"measurement": "Activity", "setting": "K562 cells; pretreatment KBM + 800 μM TUDCA 2 h, thawing PlasmaLyte + IL-2, R.T. 1 h, then KBM 2 h", "result": "A (A means 70% or higher)"}, {"measurement": "Activity", "setting": "K562 cells; pretreatment KBM + 800 μM TUDCA 2 h, thawing PlasmaLyte + IL-2, R.T. 3 h", "result": "A (A means 70% or higher)"}, {"measurement": "Activity", "setting": "K562 cells; pretreatment KBM + 800 μM TUDCA 2 h, thawing PlasmaLyte R.T. 1 h", "result": "A (A means 70% or higher)"}, {"measurement": "Activity", "setting": "K562 cells; pretreatment KBM + 800 μM TUDCA 2 h, thawing PlasmaLyte R.T. 1 h, then KBM 2 h", "result": "A (A means 70% or higher)"}, {"measurement": "Activity", "setting": "K562 cells; pretreatment KBM + 800 μM TUDCA 2 h, thawing PlasmaLyte R.T. 3 h", "result": "A (A means 70% or higher)"}, {"measurement": "Activity", "setting": "K562 cells; pretreatment KBM + 2400 μM TUDCA 2 h, thawing PlasmaLyte + IL-2, R.T. 1 h", "result": "A (A means 70% or higher)"}, {"measurement": "Activity", "setting": "K562 cells; pretreatment KBM + 2400 μM TUDCA 2 h, thawing PlasmaLyte + IL-2, R.T. 1 h, then KBM 2 h", "result": "A (A means 70% or higher)"}, {"measurement": "Activity", "setting": "K562 cells; pretreatment KBM + 2400 μM TUDCA 2 h, thawing PlasmaLyte + IL-2, R.T. 3 h", "result": "A (A means 70% or higher)"}, {"measurement": "Activity", "setting": "K562 cells; pretreatment KBM + 2400 μM TUDCA 2 h, thawing PlasmaLyte R.T. 1 h", "result": "A (A means 70% or higher)"}, {"measurement": "Activity", "setting": "K562 cells; pretreatment KBM + 2400 μM TUDCA 2 h, thawing PlasmaLyte R.T. 1 h, then KBM 2 h", "result": "A (A means 70% or higher)"}, {"measurement": "Activity", "setting": "K562 cells; pretreatment KBM + 2400 μM TUDCA 2 h, thawing PlasmaLyte R.T. 3 h", "result": "A (A means 70% or higher)"}, {"measurement": "Cytotoxic activity of frozen and thawed highly active NK cells", "setting": "K562 cells; pretreatment 2 hours, 10 to 810 μM, Plasma-Lyte A after thawing, 1 and 3 hours, K562, E:T 2:1, 2 hours, Example 6, dihydrate", "result": "Improvement of the cytotoxic activity; also recorded: improved in a TUDCA concentration-dependent manner"}, {"measurement": "Recovery rate", "setting": "highly active NK cells; added before freezing at 800 μM (preferable between 2,400 μM and 267 μM)", "result": "higher recovery rate"}, {"measurement": "Recovery rate after the thawing", "setting": "highly active NK cells; pretreatment 2 hours with KBM501 medium supplemented with 30 μM additive before freezing, Example 5", "result": "improved"}, {"measurement": "Recovery rate after thawing", "setting": "highly active NK cells; pretreatment with KBM501 medium supplemented at various concentrations (266 to 2400 μM), Example 7", "result": "improved"}, {"measurement": "Recovery rate after the thawing", "setting": "highly active NK cells; pretreatment with KBM501 medium supplemented with various concentrations (10 to 810 μM), Example 6", "result": "improved"}, {"measurement": "Killing activity against the solid tumor model", "setting": "SKOV3 sphere", "result": "higher killing activity"}]}
